Measurements as given in PubChem BioAssay AID179 (DTP/NCI, 2004).
“And” between values parts separate entries of the source, which are not always exact repeats. Identical values can stand only once. The source made the active and inactive calls.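 The calls were made as follows: active = compounds giving half or more protection of infected cells from virus-caused growth loss, again on retest; inactive = the rest.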 Where a SMILES comes first, the peptide text is derived from it. [ ]: non-standard residue; d: D form. The star is where a group is joined. Phe(4-NO2) = N[CH](Cc1ccc([N+](=O)[O-])cc1)C(=O)O; Boc = CC(C)(C)OC(=O)*; OBn = c1ccc(CO*)cc1

Test system: CEM cells HIV-1 protection, formazan growth assay
Experiment: NCI AIDS Antiviral Assay
Conditions: for IC50: measured here: growth of uninfected CEM cells
Summary of the method: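 Human CEM cells, uninfected and HIV-1-infected, received five drug concentrations, and growth was read by soluble formazan assay. Compounds giving at least 50% protection were retested; reproducible 100% protection defined confirmed active.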

Structure (SMILES) | EC50 [µM] | IC50 | outcome
Cc1nnc2n1-c1ccccc1C(=S)N1CSCC21 (stereo not given) | > 200 | > 200 µM | –
O=C(Nc1nc(=S)[nH][nH]1)C(=O)C(c1cnc2ccc([N+](=O)[O-])cc2n1)[N+](=O)[O-] (stereo not given) | > 447 | 79.4 µM | –
CC1=N[C@](C)(C2CC3C=CC2C3=O)COC1=O (stereo not given in full) | > 562 | > 562 µM | –
[Pd+2].[S-]c1ncccn1.[S-]c1ncccn1 | > 200 | 0.107 µM | –
CN(C)c1ccc(/C=N\N2C(=O)c3ccccc3C2=O)cc1 | > 123 | > 123 µM | –
COc1ccc(-c2cc(NC(=O)c3ccccc3)c(=O)oc2C)cc1 | > 200 | > 200 µM | –
Cc1ccc(C(=O)Nc2ccc(S(=O)(=O)O)c3cc(S(=O)(=O)O)cc(S(=O)(=O)O)c23)cc1NC(=O)c1cccc(N)c1 | > 200 | > 200 µM | –
COC(=O)C1CC23CCCN4CCC5(c6ccccc6N(C=O)C15CC2)C43 (stereo not given) | > 70.8 | > 70.8 µM | –
O=C1OC(Sc2ccccc2)(Sc2ccccc2)c2cccc3cccc1c23 | – | – | inactive
Cn1ncc2c(N(N)CCO)nc(-c3ccc([N+](=O)[O-])o3)nc21 | > 200 | 10.7 µM | –
c1ccc(-c2sc(-c3ccccc3)c3c2[C@H](c2ccccc2)S[C@H]3c2ccccc2)cc1 | – | – | inactive
CC(=O)/C(=C/c1ccc(Cl)cc1)C(=O)c1ccccc1 | > 66.1 | 11.7 µM | –
C=CC1(C)CCC2C(=CCC3C2(C)CC(O)C(O)C3(C)COC2OC(C(=O)O)C(O)C(O)C2O)C1 (stereo not given) (tested in a mixture with another compound) | > 100 | > 100 µM | –
CN1C/C(=C\c2ccccc2[N+](=O)[O-])C(=O)/C(=C/c2ccccc2[N+](=O)[O-])C1 | > 2 | 0.166 µM and 0.0871 µM | –
COc1cc2ccnc3c2c(c1O)-c1ccccc1C3=O | – | – | inactive
C=C1c2nc3ccccc3n2C=C(c2ccc(OC)cc2)N1c1ccc(OC)cc1 | > 200 | 33.1 µM | –
O=C(O)CN(c1ccc(Cl)cc1)S(=O)(=O)c1ccccc1 | – | – | inactive
COC1C=CC(C(=O)[N+]2=Cc3[nH]c4ccccc4c3CC2)O1 (stereo not given) | > 251 | 85.1 µM | –
Cn1c(NC(=O)C(=O)NC23CC4CC(CC(C4)C2)C3)nc2ccccc21 | – | – | inactive
C[N+]12CCCCC1CC2 (stereo not given) | 47.9 | 355 µM | –
C=CCC(CC(CC=C)C(=O)O)C(=O)O (stereo not given) | > 1170 | > 1170 µM | –
O=C(CC(=O)n1nc(-c2ccccc2)c(N=Nc2ccc(Cl)cc2)c1-c1ccccc1)Nc1cccc(Cl)c1 | > 200 | 81.3 µM | –

Structure (SMILES) | EC50 [µM] | IC50 | outcome
C(=C\c1csnn1)/c1cccnc1 | > 316 | 182 µM | –
O=C1CC2C=CC1C2CO (stereo not given) | – | – | inactive
c1ccc(-c2cc(-c3cc(-c4ccccc4)n[nH]3)[nH]n2)cc1 | > 200 | > 200 µM | –
O=C(OCC(O)CO)c1c(Cl)c(Cl)c(Cl)c(Cl)c1-c1c2cc(I)c(=O)c(I)c-2oc2c(I)c(O)c(I)cc12 (stereo not given) | > 200 | 2.63 µM | –
CCN(CC)C(=S)SCCCS(=O)(=O)O | – | – | inactive
CC(=O)CC(=O)CCC(=O)Nc1cccc(C(F)(F)F)c1 | – | – | inactive
COC(=O)C1(Cc2ccc3c(c2)CCC3)Cc2ccccc2C1O (stereo not given) | > 200 | 26.9 µM | –
CCN(CC)CCOC(=O)C(c1ccccc1)c1ccccc1 | > 200 | > 200 µM | –
C=C1[C@H]2C(=O)[C@H]3[C@@H]4N(C)C5CC3([C@@H]1OC(C)=O)[C@@H](C2OC(C)=O)C41[C@H](OC(C)=O)C(OC(=O)c2ccccc2)C[C@@](C)(C=O)[C@@H]51 (stereo not given in full) | – | – | inactive
COC(=O)C(/C(=N/N)C(=O)Nc1cc(Cl)c(Cl)cc1Cl)c1nc2ccc(Cl)cc2[nH]c1=O (stereo not given) | > 50.1 | > 50.1 µM | –
COC(=O)CCC(NC(=O)OC(C)(C)C)C(=O)NC(Cc1ccc([N+](=O)[O-])cc1)C(=O)NCC(=O)OCc1ccccc1 (stereo not given) (Boc-Glu(OMe)-[Phe(4-NO2)]-Gly-OBn; configuration not given here) | > 200 | > 200 µM | –
O=NN(CCCl)C(=O)NC1CCC(=O)NC1=O (stereo not given) | > 955 | 182 µM | –
Cc1ccc(/C=C/C(=O)c2sc(-n3nc(-c4ccccc4)cc3-c3ccccc3)nc2C)cc1 | > 11.2 | > 11.2 µM | –
CC1(n2[nH]c(=O)n(-c3ccccc3)c2=O)Cn2c(=O)n(-c3ccccc3)c(=O)n2-c2ccccc21 (stereo not given) | > 200 | > 200 µM | –
N#Cc1ccc(-c2nc3c(N)ncnc3o2)cc1 | > 200 | > 200 µM | –
Oc1[nH]c2ccccc2c1N=NC(=S)Nc1ccccc1Cl | > 200 | 1.51 µM | –
OCCCN=C1N=C(Cl)/C(=C\c2ccccc2)N1 | > 200 | > 200 µM | –
COC(=O)CCC(=O)CC(=O)C(=O)Nc1ccc(F)cc1 | > 45.7 | > 45.7 µM | –
O=C(NNC(=S)Nc1ccc(Cl)cc1)C12CC3CC(CC(C3)C1)C2 | > 200 | 6.61 µM | –
c1ccc([P+](Cc2ccccc2C[P+](c2ccccc2)(c2ccccc2)c2ccccc2)(c2ccccc2)c2ccccc2)cc1 | > 200 | 129 µM and 107 µM | –
N[C@H](C(=O)O)[C@H](Cl)CC(=O)O | > 245 | > 245 µM | –
Cn1c2ccccc2c2nnc(SCCN3CCOCC3)nc21 | > 200 | > 200 µM | –

Structure (SMILES) | EC50 [µM] | IC50 | outcome
O=c1c2nn3c(=O)n(-c4ccc(Cl)cc4)c(=O)c3nn2c(=O)n1-c1ccc(Cl)cc1 | > 200 | > 200 µM | –
Cc1cccc(C)c1NC(=O)CCC(=O)NNc1nnc(C)n1N | > 398 | > 398 µM | –
O=C1CCCN1CCCN=c1cc2n(-c3ccc(Cl)cc3)c3ccccc3nc-2cc1Nc1ccc(Cl)cc1 | – | – | inactive
CCc1cc(-c2cccc3ccccc23)c(C#N)c(=S)n1C1OC(CO)C(O)C(O)C1O (stereo not given) | > 200 | 61.7 µM | –
CCOC(=O)c1cnc(-n2[nH]c3c(c2=O)CCCC3)[nH]c1=O | > 151 | 29.5 µM | –
CC1(C)O[C@@H]2[C@H](O1)C(=O)O[C@@H]2CO | > 200 | > 200 µM | –
Nc1ccc(C2=NC(C(=O)O)C=C2)cc1 (stereo not given) | > 200 | > 200 µM | –
OCCC[N+]12CCCN1CCC2 | > 200 | > 200 µM | –
CCN(CC)CCOc1ccc(/C=C(\C#N)c2ccc(N(CC)CC)cc2)cc1 | > 200 | 0.891 µM | –
O=C1C=C(N2CCCCC2)c2cnccc2C1=O | – | – | inactive
CCOC(=O)N1CCN(c2c(N)nc(C)[nH]c2=O)CC1 | > 200 | > 200 µM | –
COC(=O)NC[C@@H]1OCc2cc3c(cc2[C@]12CC=CCC2)OCO3 | > 107 | 6.92 µM | –
NC(N)=NC(P(=O)(O)O)P(=O)(O)O | > 200 | > 200 µM | –
COC(=O)CNC(=O)CCSc1nnc(COc2ccc(Cl)cc2)n1-c1ccccc1 | > 200 | 33.9 µM | –
COc1ccc2c(c1)[n+](=O)c(C(=O)C/C(=N/NC(=O)C[N+](C)(C)C)C(=O)Nc1cccc(C)c1C)c(C)n2O | > 6.31 | > 6.31 µM | –
O=[N+]([O-])c1ccc2cnn(C[N+]34CN5CN(CN(C5)C3)C4)c2c1 | – | – | inactive
COc1ccc(-c2cc3cc(Cl)cc(Cl)c3oc2=O)cc1OC | > 200 | 186 µM | –
NCC(O)c1cc(I)c(Oc2ccc(O)cc2)c(I)c1 (stereo not given) | > 200 | 15.5 µM | –
N#CC1=C(N)N(c2ccccc2)C(c2ccco2)C1(C#N)C#N (stereo not given) | > 200 | 10 µM | –
O=c1[nH]c2cc(Cl)ccc2nc1/C(=N\O)C(O)c1ccc([N+](=O)[O-])cc1 (stereo not given) | – | – | inactive
O=C1Cc2cc3ccccc3nc2-c2ccccc2N1 | > 200 | > 200 µM | –
CC(NCCNC(C)c1cccnc1)c1cccnc1 (stereo not given) | > 200 | > 200 µM | –

Structure (SMILES) | EC50 [µM] | IC50 | outcome
Cc1ccc(S(=O)(=O)c2[nH]cc(/C(=C\C3CCCCC3)[N+](=O)[O-])c2C2CCCCC2)cc1 | > 2 | 1.15 µM | –
COC1=CC(=O)[C@@]2(C)C(C)[C@H](c3ccccc3)[C@H]2C1=O (stereo not given in full) | > 251 | > 251 µM | –
COC(=O)C(NC(=O)CNC(=O)CSc1nnc(COc2ccc(Cl)cc2)n1-c1ccccc1)C(C)C (stereo not given) | > 200 | 3.63 µM | –
CCCCOC(=O)C(=O)/C(=C\n1c(=S)[nH]c2cc(C)ccc21)C(=O)C=C(C)C | > 200 | > 200 µM | –
O=C1/C(=N\N(C(=O)c2ccccc2)c2ccccc2)c2cccc3cccc1c23 | > 3.8 | > 3.8 µM | –
COC(=O)C1=C(C(=O)OC)SC(=C2C(=O)c3ccccc3-c3ccccc32)S1 | – | – | inactive
Cc1ccccc1NP1(=O)OCCCN1Cc1ccc(Cl)c(Cl)c1 (stereo not given) | – | – | inactive
O=C1Nc2ccccc2NC1C1OC(c2ccccc2)=CC1=O (stereo not given) | > 200 | 97.7 µM | –
N#C/C(C(=S)Nc1ccccc1)=C(/N)N1CCCC1 | > 200 | 105 µM | –
Cc1oc2c(C)c3oc(=O)cc(C)c3cc2c1CN | > 50.1 | 7.08 µM | –
Cc1cc(N(CCC#N)S(=O)(=O)c2ccccc2)ccc1C=O | > 110 | > 110 µM | –
CC(=O)Nc1ccc(/C=C2\C(=O)NC(=S)N2/C=C(\C#N)c2ccc([N+](=O)[O-])cc2)cc1 | > 200 | 72.4 µM | –
c1c2c(cc3c1OCN(C1CC1)C3)OCN(C1CC1)C2 | > 51.3 | 4.27 µM | –
COC(=O)C1=CC2C=CC(C1C(=O)OC)C1C(C(=O)OC)=C(C(=O)OC)C(C(=O)OC)=C(C(=O)OC)C21OC (stereo not given) | – | – | inactive
Cc1ccc(Nc2nc(C)c(C(/C=C/c3ccc4c(c3)OCO4)=N/Nc3ccc([N+](=O)[O-])cc3[N+](=O)[O-])s2)c([N+](=O)[O-])c1 | > 60.3 | 55 µM | –
CCOC(=O)/C(=C/c1ccc(Br)cc1)C(=O)c1ccccc1 | > 10.5 | > 10.5 µM | –
c1ccc([P+](CCC[P+](c2ccccc2)(c2ccccc2)c2ccccc2)(c2ccccc2)c2ccccc2)cc1 | > 200 | 135 µM | inactive
C=CCCC12CCCC(=O)C1Sc1ccc3ccccc3c12 (stereo not given) | > 12.3 | > 12.3 µM | –
C=C(c1ccc(OC)c(OC)c1)c1nccc2cc(OC)c(OC)cc12 | > 74.1 | 12.6 µM | –
